In the supplement of paper PMC8967900:

How the values were obtained:
Assay in all cases: selective drug sensitivity score (sDSS, relative to normal bone marrow) (sDSS (score)); higher = more potent and effective on the cell line relative to normal bone marrow cells
Settings in all cases: 72 h
697 = tested on: 697
HAL-01 = tested on: HAL-01
KOPN-8 = tested on: KOPN-8
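Also: ALL cell lines in 384-well plates, five doses spanning 10,000-fold, each plate scaled between vehicle and 100 µmol/L benzalkonium chloride controls, sDSS an adapted area-under-curve metric.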

SMILES	selective drug sensitivity score 697	selective drug sensitivity score (HAL-01)	selective drug sensitivity score (KOPN-8)
Cc1c2oc3c(C)ccc(C(=O)N[C@@H]4C(=O)N[C@H](C(C)C)C(=O)N5CCC[C@H]5C(=O)N(C)CC(=O)N(C)[C@@H](C(C)C)C(=O)O[C@@H]4C)c3nc-2c(C(=O)N[C@@H]2C(=O)N[C@H](C(C)C)C(=O)N3CCC[C@H]3C(=O)N(C)CC(=O)N(C)[C@@H](C(C)C)C(=O)O[C@@H]2C)c(N)c1=O [Dactinomycin] (top concentration 1000 nM)	19.2	1.04	17.8
C=CC(=O)Nc1cccc(Oc2nc(Nc3ccc(N4CCN(C)CC4)cc3)nc3ccsc23)c1 [Olmutinib] (top concentration 1000 nM)	-0.02	5.78	-0.02
CCNc1nc(Nc2cc(F)c(C(=O)N3CCOCC3)cc2OC)ncc1C(F)(F)F [GNE-7915] (top concentration 1000 nM)	-0.06	1.04	-0.06
O=C(NCc1ccncc1)C12CC3CC(C1)CC(c1ccc(Cl)cc1)(C3)C2 (top concentration 50000 nM)	3.78	4.28	4.48
CNC(=O)c1ccc(N2C(=S)N(c3cnc(C#N)c(C(F)(F)F)c3)C(=O)C23CCC3)cc1F [Apalutamide] (top concentration 10000 nM)	0	0	0
c1cn2cc(-c3ccc4cn[nH]c4c3)nc(Nc3ccc(N4CCOCC4)cc3)c2n1 [Entospletinib] (top concentration 5000 nM)	3.16	-0.64	1.46
COc1cc2ncnc(Nc3ccc(F)c(Cl)c3)c2cc1OCCCN1CCOCC1 [Gefitinib] (top concentration 10000 nM)	2.26	-0.14	2.96
Cc1ccc(-n2nc(C(C)(C)C)cc2NC(=O)Nc2ccc(OCCN3CCOCC3)c3ccccc23)cc1 [Doramapimod] (top concentration 10000 nM)	4.96	-0.24	3.76
O=C(O)CC1CC(c2ccccc2)=NO1 (stereo not drawn) [VGX-1027] (top concentration 10000 nM)	-0.04	-0.04	-0.04
COc1cc(C)c(/C=C/C(C)=C/C=C/C(C)=C/C(=O)O)c(C)c1C [Acitretin] (top concentration 10000 nM)	0.6	-1.6	1.8
Cc1ccc(-c2cc(C(F)(F)F)nn2-c2ccc(S(N)(=O)=O)cc2)cc1 [Celecoxib] (top concentration 10000 nM)	-0.06	0.04	0.74
Cc1cc2c(F)c(Oc3ncnn4cc(OC[C@@H](C)O)c(C)c34)ccc2[nH]1 [Brivanib] (top concentration 1000 nM)	0.66	-0.04	0.16
CCCCNc1ncc(C(=O)NCc2ccc(-n3ccnc3)cc2)c(NC2CCC(O)CC2)n1 (stereo not drawn) [UNC2881] (top concentration 2500 nM)	1	0.3	0.2
Nc1nc(Nc2ccc3c(c2)CC[C@@H](N2CCCC2)CC3)nn1-c1cc2c(nn1)-c1ccccc1CCC2 [BGB324] (top concentration 10000 nM)	3.52	-1.58	0.02
CN1CC[C@@H](NC(=O)Nc2ccc(C#N)cc2)C[C@@H]1c1nc2ccccc2[nH]1 [Glasdegib] (top concentration 1000 nM)	0	0	0
CCCCC(=O)OCC(=O)[C@]1(O)Cc2c(O)c3c(c(O)c2[C@@H](O[C@H]2C[C@H](NC(=O)C(F)(F)F)[C@H](O)[C@H](C)O2)C1)C(=O)c1c(OC)cccc1C3=O [Valrubicin] (top concentration 5000 nM)	8.58	0.38	10.2
CCC1=C[C@@H]2CN(C1)Cc1c([nH]c3ccccc13)[C@@](C(=O)OC)(c1cc3c(cc1OC)N(C)[C@H]1[C@@](O)(C(=O)OC)[C@H](OC(C)=O)[C@]4(CC)C=CCN5CC[C@]31[C@@H]54)C2 [Vinorelbine] (top concentration 10000 nM)	25	1.38	25.8
CC(O)c1cc(C(=O)N[C@@H](C)Cn2ccc(-c3ccc(C#N)c(Cl)c3)n2)n[nH]1 (stereo partly drawn) [ODM-201] (top concentration 2500 nM)	0.12	1.42	0.02
C[C@H]1C[C@@H](n2c(Nc3ccc(OC(F)(F)F)cc3)nc3cc(CCC(=O)O)ccc32)CC(C)(C)C1 (top concentration 10000 nM)	-0.14	1.16	0.06
O=C1CCC(N2C(=O)c3ccccc3C2=O)C(=O)N1 (stereo not drawn) [Thalidomide] (top concentration 10000 nM)	-0.14	0.36	-0.14
O=C(O)CC[C@H]1CC[C@@](c2cc(F)ccc2F)(S(=O)(=O)c2ccc(Cl)cc2)CC1 [MK-0752] (top concentration 1000 nM)	0	3.5	0

SMILES	selective drug sensitivity score 697	selective drug sensitivity score (HAL-01)	selective drug sensitivity score (KOPN-8)
CC(O)(CS(=O)(=O)c1ccc(F)cc1)C(=O)Nc1ccc(C#N)c(C(F)(F)F)c1 (stereo not drawn) [Bicalutamide] (top concentration 10000 nM)	-0.68	-1.68	4.92
O=C(Nc1cnn2ccc(N3CCC[C@@H]3c3cc(F)ccc3F)nc12)N1CC[C@H](O)C1 [Larotrectinib] (top concentration 1000 nM)	-0.62	0.68	-0.62
CC(=O)O[C@@]12CO[C@@H]1C[C@H](O)[C@@]1(C)C(=O)[C@H](O)C3=C(C)[C@@H](OC(=O)[C@H](O)[C@@H](NC(=O)OC(C)(C)C)c4ccccc4)C[C@@](O)([C@@H](OC(=O)c4ccccc4)[C@H]21)C3(C)C [Docetaxel] (top concentration 1000 nM)	23.4	4.9	23.7
CONC(=O)c1ccccc1Nc1cc(Nc2cc(C)nn2C(C)C)ncc1Cl (top concentration 1000 nM)	-0.94	2.96	3.86
CC[C@@H]1C(=O)OC[C@@H]1Cc1cncn1C [Pilocarpine] (top concentration 40000 nM)	-1.56	-1.56	-1.56
Clc1ccccc1C(c1ccccc1)(c1ccccc1)n1cccn1 [TRAM-34] (top concentration 1000 nM)	-0.08	2.72	-0.08
COc1cc2c(NC3CCN(C(C)C)CC3)nc(C3CCCCC3)nc2cc1OCCCN1CCCC1 [UNC0638] (top concentration 10000 nM)	-0.84	-4.64	-4.44
CC[C@H](CO)Nc1nc(NCc2ccccc2)c2ncn(C(C)C)c2n1 [Seliciclib] (top concentration 10000 nM)	1.16	-0.34	4.26
O=C1NC(=O)[C@@H](c2cn3c4c(cccc24)CCC3)[C@@H]1c1c[nH]c2ccccc12 [Tivantinib] (top concentration 1000 nM)	5.18	5.78	3.08
O=c1ncn2nc(Sc3ccc(F)cc3F)ccc2c1-c1c(Cl)cccc1Cl [Neflamapimod] (top concentration 10000 nM)	2.9	2.5	4
C[C@@H]1CN(C(=O)c2ccc(NC(=O)c3cc(O[C@H](C)c4c(Cl)ccc(F)c4Cl)c(N)nn3)cc2)C[C@H](C)N1 [Ensartinib] (top concentration 1000 nM)	0.26	-2.84	1.16
CCc1c(C(=O)C(N)=O)c2c(OCC(=O)O)cccc2n1Cc1ccccc1 [Varespladib] (top concentration 10000 nM)	-0.84	-0.84	-0.84
C[C@H]1CN(C2COC2)CCN1c1ccc(Nc2cc(-c3ccnc(N4CCn5c(cc6c5CC(C)(C)C6)C4=O)c3CO)cn(C)c2=O)nc1 [GDC-0853] (top concentration 1000 nM)	0	0	0
CCC1(c2ccc(N)cc2)CCC(=O)NC1=O (stereo not drawn) [Aminoglutethimide] (top concentration 10000 nM)	0	0	0
COc1cc2c(Nc3ccc(Cl)c(Cl)c3F)ncnc2cc1OC[C@@H]1C[C@@H]2CN(C)C[C@@H]2C1 [Tesevatinib] (top concentration 1000 nM)	-0.66	2.44	-0.86
CC[C@@H]1CN(C(=O)NCC(F)(F)F)C[C@@H]1c1cnc2cnc3[nH]ccc3n12 [Upadacitinib] (top concentration 10000 nM)	-6.06	-6.76	-7.16
CN(C)C(=O)c1ccc(S(=O)(=O)c2ccc(NC(=O)[C@@](C)(O)C(F)(F)F)c(Cl)c2)cc1 [AZD7545] (top concentration 10000 nM)	4.3	-0.2	3.1
CNC(=O)c1ccc(C)c(-n2c(C)cc(OCc3ccc(F)cc3F)c(Br)c2=O)c1 (top concentration 1000 nM)	2	2.6	0.7
Cc1nc(=O)c2cc(CN(C)c3ccc(C(=O)N[C@@H](CCC(=O)O)C(=O)O)s3)ccc2[nH]1 [Raltitrexed] (top concentration 1000 nM)	25.8	21.2	28.4
O=C(O)CCCCC(CCSCc1ccccc1)SCc1ccccc1 (stereo not drawn) [Devimistat (CPI-613)] (top concentration 10000 nM)	0	0	0
